{"source": "patent US6998383B2", "about": "“Inhibitors of receptor activator of NF-κB and uses thereof” (Research Development Corporation, priority 2001, dated 2006)", "key": {"[1]": {"test_system": "bone marrow-derived mouse monocytes", "assay": "RANKL and M-CSF-mediated osteoclast differentiation in bone marrow-derived mouse monocytes (TRAP staining)", "assay_type": "cell-based", "procedure": "After 6-7 days, the cells were fixed and stained for TRAP. The numbers of multi-nucleated, TRAP positive osteoclasts were counted.\nMouse-derived monocytes were plated in 48-well plates and costimulated as in FIG. 3A with murine M-CSF (10 ng/ml) and RANKL (30 ng/ml) in the absence (left panel) or presence of the indicated peptides. After 6-7 days, the cells were fixed and stained for TRAP. A representative field from each well was taken at a magnification of 10×.\nPrimary bone marrow monocytes (BM) or RAW264.7 cells were cultured in 48-well dishes at a density of 1×10^5 cells/well or 2×10^3 cells/well, and then treated with the indicated factors at the beginning of the culture and during a medium change on day 3. Osteoclast formation was assessed by counting the total number of multi-nucleated (>3 nuclei), TRAP-positive cells present per well between day 7 and 10 (BM) or on day 5 (RAW264.7) (30).\nTo further support the results obtained from the RAW264.7 cell line, the ability of these peptides to inhibit RANKL-mediated osteoclast differentiation in primary mouse-derived monocytes was tested. Costimulation of bone marrow-derived monocytes with RANKL and M-CSF cause osteoclast differentiation after 7-10 days, as determined by staining multi-nucleated, TRAP positive osteoclasts (30). Similar to the results with RAW264.7 cells, both L-T6DP-1 and L-T6DP-2 inhibited the development of TRAP positive osteoclast in a dose-dependent manner and L-T6DP-1 was much more efficient (FIGS. 3A and 3B)."}, "NF-κB": {"test_system": "NF-κB", "assay": "RANKL-induced NF-κB activation in RAW264.7 cells (gel mobility shift assay)", "assay_type": "cell-based, mouse", "conditions": "peptide pre-treatment 5 h, RANKL 10 nM 15 min (FIG. 4A)", "procedure": "(§1) RAW264.7 cells were plated in 6-well plates and treated with the indicated peptides for 5 h, then treated with RANKL (10 nM) for 15 mm. Nuclear and cytoplasmic extracts were prepared and a gel mobility shift assays was performed with 8 μg of nuclear extracts as described below.\nNuclear extracts were prepared from transfected cells essentially as described (34). Equivalent amounts of nuclear protein were used in an EMSA reaction with ^32P-labeled NF-κB oligonucleotide from HIV-LTR as described (34). NF-κB activation was quantitated using a PhosphoImager and Imagequant Software.\nA mutant form of the receptor activator of NF-κB which contains only the TRAF6 binding domain is sufficient to activate NF-κB (8), and a dominant negative TRAF6 inhibits RANK-mediated NF-κB activation in 293 cells (9). To investigate the effect of the TRAF6 binding peptides on RANKL-induced NF-κB activation, NF-κB activation was examined in RAW264.7 cells that activated NF-κB when stimulated with RANKL (37). RANKL-stimulated RAW264.7 cells activated NF-κB as indicated by a gel mobility shift assay (FIG. 4A)."}, "IκB": {"test_system": "IκB", "assay": "IκB degradation in RANKL-treated RAW264.7 cells (anti-IκB immunoblot)", "assay_type": "cell-based, mouse", "conditions": "cytoplasmic extracts of RAW264.7 cells from FIG. 4A (FIG. 4B)", "procedure": "as §1\nCytoplasmic extracts (30 μg) from FIG. 4A were immunoblotted with anti-IκB as described below.\n293 cells were plated at 0.6×10^6 cells/well on 6-well plates and transfected the next day as described (8). Total amount of plasmid DNA was kept constant by adding empty pCMVFLAG1 vector. Cells and the conditioned supernatants were harvested 24-36 h after transfection. Lysates were prepared as described (8). For western blot analysis, whole-cell lysates (15-30 μg) or proteins from GST-affinity precipitation were separated by 8.5% SDS-PAGE, electroblotted onto nitrocellulose membranes, and incubated with the indicated antibodies. The membranes were then developed using the enhanced chemiluminescence (ECL) system (Amersham, Chicago, Ill.)."}, "[2]": {"biological_target": "T1, TRAF5 binding to the cytoplasmic domain of RANK (Mus musculus, UniProt P70191)", "T1 construct": "expressed in transfected cells; host or cells: human 293 cells (TRAF lysate); The GST-RANK fusion was purified as previously described", "assay": "Competitive GST-pull down assay, TRAF5 binding to RANK cytoplasmic domain", "conditions": "100 μM peptide, FLAG-TRAF5 293 cell extract (FIG. 4C)", "procedure": "Cellular extracts from human 293 cells transfected with either FLAG-TRAF2, -TRAF5, or -TRAF6 were mixed with GST or GST-RANKed in the absence or presence of 100 μM of the indicated peptides. A GST-pull down assay was performed as described below. The bound TRAFs were visualized by immunoblotting with anti-FLAG antibodies.\nEquivalent amounts of GST or GST-RANK cytoplasmic domain (GST-RANKed) fusion protein attached to 20 μl of glutathione agarose beads were mixed with lysates (50 μg) from 293 cells programmed to express the epitope-tagged TRAF protein and the indicated peptides in binding buffer (20 mM TRIS, pH 8, 150 mM NaCl, 1 mM DTT, 2 mM EDTA, and 0.1% NP-40) and allowed to rotate for 1 h at 4° C. The beads were collected by centrifugation, washed three times in binding buffer, and then washed once in low-salt buffer (20 mM TRIS, pH 8, 50 mM NaCl, and 1 mM DTT). Bound proteins were eluted with addition of SDS-sample buffer and boiled. The eluted proteins were subjected to 7.5% SDS-PAGE and western blot analysis was performed with anti-FLAG antibodies.\nThe cytoplasmic domain of RANK interacts with many TRAF molecules, including TRAF1, 2, 3, 5, and 6 (7-9, 11, 12). While TRAF1, 2, 3, and 5 interact with the c-terminal tail of receptor activator of NF-κB, TRAF6 interacts with a membrane proximal region of the cytoplasmic domain of the receptor activator of NF-κB. […]"}, "[3]": {"test_system": "RAW cells co-cultured with breast cancer cell lines", "assay": "Osteoclast differentiation of RAW cells induced by co-cultured breast cancer cells (T47D, MDA-MB-468)", "assay_type": "cell-based, mouse", "conditions": "co-culture, 100 μM peptide, 5 days, TRAP staining (FIG. 6A)", "procedure": "FIG. 6A: Breast cancer cells (500/well) were plated in 24-well plates in the absence or presence of RAW cells (10000/well) and in the absence or presence of L-T6DP-1 or T6DP-1 (100 μM). After 5 days. the cells were fixed, stained for TRAP, and photographed with a 10× objective lens.\nThe number of MG-63 cells was critical for inducing RAW cells to differentiate into osteoclasts. These observations lead to a direct inverse relationship between the number of RAW cells to MG-63 cells which is required for the formation of osteoclasts. […] When grown on synthetic bone slides, the osteoclasts derived from the co-culture assays were able to cause bone resorption (FIG. 6B).\nWhen L-T6DP-1 was added to these co-culture assays, the ability of the breast cancer cells to induce osteoclast differentiation of RAW cells was abolished, whereas T6DP-1 had no effect (FIG. 6A)."}}, "data": [{"substance": "L-T6DP-1: Kaposi fibroblast growth factor signal sequence hydrophobic domain attached to murine RANK peptide containing the known TRAF6 binding domain (AAVALLPAVLLALLAPRKIPTEDEYTDRPSQPST; PEPTIDE Peptide L-T6Bp-1)", "values": [{"measurement": "development of TRAP positive osteoclasts", "setting": "[1]; M-CSF 10 ng/ml and RANKL 30 ng/ml (FIGS. 3A, 3B)", "value": "inhibited"}, {"measurement": "multi-nucleated osteoclasts", "setting": "[1]; M-CSF and RANKL, 30 μM peptide, cells still TRAP positive (FIG. 3B)", "value": "multi-nucleated osteoclast were not observed"}, {"measurement": "osteoclasts", "setting": "[1]; M-CSF and RANKL, 100 μM peptide (FIG. 3B)", "value": "no osteoclasts were observed"}, {"measurement": "RANKL-induced NF-κB activation", "setting": "NF-κB", "value": "suppressed in a dose-dependent manner"}, {"measurement": "IκB degradation", "setting": "IκB", "value": "inhibition"}, {"measurement": "TRAF5 binding to the cytoplasmic domain of RANK", "setting": "[2]", "value": "neither L-T6DP-1 nor L-T6DP-2 inhibited"}, {"measurement": "ability of breast cancer cells to induce osteoclast differentiation of RAW cells", "setting": "[3]", "value": "abolished"}]}]}
